Test results as given in patent publication US5672715A, “Herbicidal substituted 3-aryl-pyrazoles” (Monsanto Company, priority 1995, dated 1997).
Where two headings read alike, the source gives them in different places.

How the values were obtained:
Format in all cases: in vivo
Soybean [1] = experiment: post-emergence herbicide test; settings: for inhibition at 200.072 g/ha: 0.1785 lb/A; for inhibition at 5043.82 g/ha: 4.5 lb/A
Summary of the method: (§1)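 Percent inhibition of each species scored after post-emergence spraying of two- to three-week-old greenhouse plants. Spray solution carried about 0.4% by volume emulsifier, delivered by atomizer at 170.3 kPa (10 psig) and 1870 L/Ha total volume.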

Blackgrass = experiment: post-emergence herbicide test; settings: Alopecurus myosuroides, post-emergence, read-out: % plant inhibition; for inhibition at 7.95803 g/ha: 0.0071 lb/A; for inhibition at 40.0143 g/ha: 0.0357 lb/A; for inhibition at 200.072 g/ha: 0.1785 lb/A; for inhibition at 1000.92 g/ha: 0.893 lb/A; for inhibition at 5043.82 g/ha: 4.5 lb/A
Summary of the method: as §1

Bedstraw Catchweed = experiment: post-emergence herbicide test; settings: for inhibition at 5043.82 g/ha: 4.5 lb/A
Summary of the method: as §1

Corn [2] = experiment: post-emergence herbicide test; settings: Zea mays, post-emergence, read-out: % plant inhibition; for inhibition at 200.072 g/ha: 0.1785 lb/A; for inhibition at 5043.82 g/ha: 4.5 lb/A
Summary of the method: as §1

Cocklebur [3] = experiment: post-emergence herbicide test; settings: Xanthium strumarium, post-emergence, read-out: % plant inhibition; for inhibition at 200.072 g/ha: 0.1785 lb/A; for inhibition at 5043.82 g/ha: 4.5 lb/A
Summary of the method: as §1

Barnyardgrass [4] = experiment: post-emergence herbicide test; settings: Echinochloa crus-galli, post-emergence, read-out: % plant inhibition; for inhibition at 200.072 g/ha: 0.1785 lb/A; for inhibition at 5043.82 g/ha: 4.5 lb/A
Summary of the method: as §1

Soybean [5] = experiment: pre-emergence herbicide test; settings: Glycine max, pre-emergence, read-out: % plant inhibition; for inhibition at 200.072 g/ha: 0.1785 lb/A; for inhibition at 1000.92 g/ha: 0.893 lb/A; for inhibition at 5043.82 g/ha: 4.5 lb/A
Summary of the method: (§2)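 Soil-applied pre-emergence screen: compound added to cover topsoil over sown seeds, pans held on greenhouse bench with subirrigation, % inhibition scored ~2 weeks later.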

Rice = experiment: pre-emergence herbicide test; settings: Oryza sativa, read-out: % plant inhibition; for inhibition at 5043.82 g/ha: 4.5 lb/A
Summary of the method: as §2

Velvetleaf = experiment: pre-emergence herbicide test; settings: for inhibition at 5043.82 g/ha: 4.5 lb/A
Summary of the method: as §2

Yellow Foxtail = experiment: pre-emergence herbicide test; settings: Setaria, read-out: % plant inhibition; for inhibition at 200.072 g/ha: 0.1785 lb/A; for inhibition at 1000.92 g/ha: 0.893 lb/A; for inhibition at 5043.82 g/ha: 4.5 lb/A
Summary of the method: as §2

Yellow Nutsedge = experiment: pre-emergence herbicide test; settings: Cyperus, read-out: % plant inhibition; for inhibition at 200.072 g/ha: 0.1785 lb/A; for inhibition at 5043.82 g/ha: 4.5 lb/A
Summary of the method: as §2

Corn [6] = experiment: pre-emergence herbicide test; settings: for inhibition at 5043.82 g/ha: 4.5 lb/A
Summary of the method: as §2

Morning Glory = experiment: pre-emergence herbicide test; settings: for inhibition at 5043.82 g/ha: 4.5 lb/A
Summary of the method: as §2

Cocklebur [7] = experiment: pre-emergence herbicide test; settings: for inhibition at 5043.82 g/ha: 4.5 lb/A
Summary of the method: as §2

Barnyardgrass [8] = experiment: pre-emergence herbicide test; settings: Echinochloa crus-galli, pre-emergence, read-out: % plant inhibition; for inhibition at 200.072 g/ha: 0.1785 lb/A; for inhibition at 5043.82 g/ha: 4.5 lb/A
Summary of the method: as §2

[9] = Glycine max, post-emergence, read-out: % plant inhibition
[10] = Galium aparine, post-emergence, 0.893 lb/A, read-out: % plant inhibition
[11] = Galium aparine, post-emergence, read-out: % plant inhibition
[12] = Abutilon theophrasti, pre-emergence, 0.893 lb/A, read-out: % plant inhibition
[13] = Abutilon theophrasti, pre-emergence, read-out: % plant inhibition
[14] = Zea mays, pre-emergence, read-out: % plant inhibition
[15] = Ipomoea, pre-emergence, 0.893 lb/A, read-out: % plant inhibition
[16] = Ipomoea, pre-emergence, read-out: % plant inhibition
[17] = Xanthium strumarium, pre-emergence, 0.893 lb/A, read-out: % plant inhibition
[18] = Xanthium strumarium, pre-emergence, read-out: % plant inhibition

SMILES: Cc1c(-c2cc(F)c([N+](=O)[O-])cc2F)nn(C)c1C(F)(F)F [Compound 35]
- % plant inhibition (Soybean [1]; 0.893 lb/A): 30%
- inhibition at 7.95803 g/ha (Soybean [1]; Glycine max, post-emergence, 0.0071 lb/A, read-out: % plant inhibition): 0%
- inhibition at 40.0143 g/ha (Soybean [1]; Glycine max, post-emergence, 0.0357 lb/A, read-out: % plant inhibition): 0%
- inhibition (Soybean [1]; Glycine max, post-emergence, 0.1725 lb/A, read-out: % plant inhibition): 20%
- inhibition at 200.072 g/ha (Soybean [1]; [9]): 25%
- inhibition at 5043.82 g/ha (Soybean [1]; [9]): 55%
- inhibition at 7.95803 g/ha (Blackgrass; Table 4a): 0%
- inhibition at 7.95803 g/ha (Blackgrass; Table 5a): 0%
- inhibition at 40.0143 g/ha (Blackgrass; Table 4a): 0%
- inhibition at 40.0143 g/ha (Blackgrass; Table 5a): 0%
- inhibition (Blackgrass; 0.1725 lb/A, Table 4a): 0%
- inhibition at 200.072 g/ha (Blackgrass; Table 4a): 0%
- inhibition at 1000.92 g/ha (Blackgrass; Table 4a): 0%
- inhibition at 1000.92 g/ha (Blackgrass; Table 5a): 35%
- inhibition at 5043.82 g/ha (Blackgrass; Table 4a): 0%
- inhibition at 5043.82 g/ha (Blackgrass; Table 5a): 45%
- % plant inhibition (Bedstraw Catchweed; 0.893 lb/A): 95%
- inhibition at 7.95803 g/ha (Bedstraw Catchweed; Galium aparine, post-emergence, 0.0071 lb/A, read-out: % plant inhibition): 0%
- inhibition at 40.0143 g/ha (Bedstraw Catchweed; Galium aparine, post-emergence, 0.0357 lb/A, read-out: % plant inhibition): 25%
- inhibition at 1000.92 g/ha (Bedstraw Catchweed; [10]): 75%
- inhibition at 5043.82 g/ha (Bedstraw Catchweed; [11]): 85%
- inhibition at 7.95803 g/ha (Corn [2]; 0.0071 lb/A): 0%
- inhibition at 40.0143 g/ha (Corn [2]; 0.0357 lb/A): 0%
- inhibition (Corn [2]; 0.1725 lb/A): 30%
- inhibition at 200.072 g/ha (Corn [2]): 20%
- inhibition at 5043.82 g/ha (Corn [2]): 75%
- inhibition at 7.95803 g/ha (Cocklebur [3]; 0.0071 lb/A): 0%
- inhibition at 40.0143 g/ha (Cocklebur [3]; 0.0357 lb/A): 0%
- inhibition (Cocklebur [3]; 0.1725 lb/A): 0%
- inhibition at 200.072 g/ha (Cocklebur [3]): 0%
- inhibition at 5043.82 g/ha (Cocklebur [3]): 90%
- inhibition at 7.95803 g/ha (Barnyardgrass [4]; 0.0071 lb/A): 0%
- inhibition at 40.0143 g/ha (Barnyardgrass [4]; 0.0357 lb/A): 0%
- inhibition at 200.072 g/ha (Barnyardgrass [4]): 0%
- inhibition at 5043.82 g/ha (Barnyardgrass [4]): 65%
- inhibition at 40.0143 g/ha (Soybean [5]; 0.0357 lb/A): 0%
- inhibition at 200.072 g/ha (Soybean [5]): 0%
- inhibition at 1000.92 g/ha (Soybean [5]): 40%
- inhibition at 5043.82 g/ha (Soybean [5]): 55%
- inhibition at 40.0143 g/ha (Rice; 0.0357 lb/A): 0%
- inhibition at 5043.82 g/ha (Rice): 0%
- % plant inhibition (Velvetleaf; 0.893 lb/A): 98%
- inhibition at 40.0143 g/ha (Velvetleaf; Abutilon theophrasti, pre-emergence, 0.0357 lb/A, read-out: % plant inhibition): 0%
- inhibition at 1000.92 g/ha (Velvetleaf; [12]): 100%
- inhibition at 5043.82 g/ha (Velvetleaf; [13]): 100%
- inhibition at 40.0143 g/ha (Yellow Foxtail; 0.0357 lb/A): 0%
- inhibition at 200.072 g/ha (Yellow Foxtail): 0%
- inhibition at 1000.92 g/ha (Yellow Foxtail): 35%
- inhibition at 5043.82 g/ha (Yellow Foxtail): 80%
- inhibition at 40.0143 g/ha (Yellow Nutsedge; 0.0357 lb/A): 0%
- inhibition at 200.072 g/ha (Yellow Nutsedge): 0%
- inhibition at 5043.82 g/ha (Yellow Nutsedge): 30%
- % plant inhibition (Corn [6]; 0.1785 lb/A): 5%
- inhibition at 40.0143 g/ha (Corn [6]; Zea mays, pre-emergence, 0.0357 lb/A, read-out: % plant inhibition): 0%
- inhibition at 5043.82 g/ha (Corn [6]; [14]): 55%
- % plant inhibition (Morning Glory; 0.893 lb/A): 80%
- inhibition at 40.0143 g/ha (Morning Glory; Ipomoea, pre-emergence, 0.0357 lb/A, read-out: % plant inhibition): 0%
- inhibition at 1000.92 g/ha (Morning Glory; [15]): 85%
- inhibition at 5043.82 g/ha (Morning Glory; [16]): 85%
- % plant inhibition (Cocklebur [7]; 0.893 lb/A): 35%
- inhibition at 40.0143 g/ha (Cocklebur [7]; Xanthium strumarium, pre-emergence, 0.0357 lb/A, read-out: % plant inhibition): 0%
- inhibition at 1000.92 g/ha (Cocklebur [7]; [17]): 55%
- inhibition at 5043.82 g/ha (Cocklebur [7]; [18]): 90%
- inhibition at 40.0143 g/ha (Barnyardgrass [8]; 0.0357 lb/A): 0%
- inhibition at 200.072 g/ha (Barnyardgrass [8]): 0%
- inhibition at 5043.82 g/ha (Barnyardgrass [8]): 95%

SMILES: Cn1nc(-c2cc(F)ccc2F)c(C=O)c1C(F)(F)F [Compound 34]
- inhibition at 200.072 g/ha (Soybean [1]; [9]): 0%
- inhibition at 1000.92 g/ha (Soybean [1]; Glycine max, post-emergence, 0.893 lb/A, read-out: % plant inhibition): 10%
- inhibition at 5043.82 g/ha (Soybean [1]; [9]): 15%
- inhibition at 200.072 g/ha (Blackgrass; Table 4a): 0%
- inhibition at 200.072 g/ha (Blackgrass; Table 5a): 0%
- inhibition at 1000.92 g/ha (Blackgrass; Table 4a): 0%
- inhibition at 1000.92 g/ha (Blackgrass; Table 5a): 0%
- inhibition at 5043.82 g/ha (Blackgrass; Table 4a): 0%
- inhibition at 5043.82 g/ha (Blackgrass; Table 5a): 30%
- inhibition at 200.072 g/ha (Bedstraw Catchweed; Galium aparine, post-emergence, 0.1785 lb/A, read-out: % plant inhibition): 0%
- inhibition at 1000.92 g/ha (Bedstraw Catchweed; [10]): 0%
- inhibition at 5043.82 g/ha (Bedstraw Catchweed; [11]): 80%
- inhibition at 200.072 g/ha (Corn [2]): 0%
- inhibition at 1000.92 g/ha (Corn [2]; 0.893 lb/A): 0%
- inhibition at 5043.82 g/ha (Corn [2]): 15%
- inhibition at 200.072 g/ha (Cocklebur [3]): 0%
- inhibition at 1000.92 g/ha (Cocklebur [3]; 0.893 lb/A): 0%
- inhibition at 5043.82 g/ha (Cocklebur [3]): 25%
- inhibition at 200.072 g/ha (Barnyardgrass [4]): 0%
- inhibition at 1000.92 g/ha (Barnyardgrass [4]; 0.893 lb/A): 0%
- inhibition at 5043.82 g/ha (Barnyardgrass [4]): 10%
- inhibition at 200.072 g/ha (Soybean [5]): 0%
- inhibition at 1000.92 g/ha (Soybean [5]): 0%
- inhibition at 5043.82 g/ha (Soybean [5]): 0%
- inhibition at 200.072 g/ha (Rice; 0.1785 lb/A): 0%
- inhibition at 1000.92 g/ha (Rice; 0.893 lb/A): 0%
- inhibition at 5043.82 g/ha (Rice): 0%
- inhibition at 200.072 g/ha (Velvetleaf; Abutilon theophrasti, pre-emergence, 0.1785 lb/A, read-out: % plant inhibition): 0%
- inhibition at 1000.92 g/ha (Velvetleaf; [12]): 15%
- inhibition at 5043.82 g/ha (Velvetleaf; [13]): 75%
- inhibition at 200.072 g/ha (Yellow Foxtail): 0%
- inhibition at 1000.92 g/ha (Yellow Foxtail): 0%
- inhibition at 5043.82 g/ha (Yellow Foxtail): 20%
- inhibition at 200.072 g/ha (Yellow Nutsedge): 0%
- inhibition at 1000.92 g/ha (Yellow Nutsedge; 0.893 lb/A): 0%
- inhibition at 5043.82 g/ha (Yellow Nutsedge): 20%
- inhibition at 200.072 g/ha (Corn [6]; Zea mays, pre-emergence, 0.1785 lb/A, read-out: % plant inhibition): 0%
- inhibition at 1000.92 g/ha (Corn [6]; Zea mays, pre-emergence, 0.893 lb/A, read-out: % plant inhibition): 0%
- inhibition at 5043.82 g/ha (Corn [6]; [14]): 0%
- inhibition at 200.072 g/ha (Morning Glory; Ipomoea, pre-emergence, 0.1785 lb/A, read-out: % plant inhibition): 0%
- inhibition at 1000.92 g/ha (Morning Glory; [15]): 0%
- inhibition at 5043.82 g/ha (Morning Glory; [16]): 0%
- inhibition at 200.072 g/ha (Cocklebur [7]; Xanthium strumarium, pre-emergence, 0.1785 lb/A, read-out: % plant inhibition): 0%
- inhibition at 1000.92 g/ha (Cocklebur [7]; [17]): 0%
- inhibition at 5043.82 g/ha (Cocklebur [7]; [18]): 0%
- inhibition at 200.072 g/ha (Barnyardgrass [8]): 0%
- inhibition at 1000.92 g/ha (Barnyardgrass [8]; 0.893 lb/A): 0%
- inhibition at 5043.82 g/ha (Barnyardgrass [8]): 0%
